Reference: patent US20160106711A1, “3-3-Di-Substituted-Oxindoles as Inhibitors of Translation Initiation” (President and Fellows of Harvard College, priority 2012, published 2016)

How the values were obtained:
KLN = test: Cell growth assay (sulforhodamine B), KLN cells; format: cell-based, mouse; settings: 5 days, SRB
Experimental: […] Plates were then incubated with 0.4% SRB in 1% acetic acid for 1 h, washed with 1% acetic acid to remove the unbound dye, and air-dried. The bound dye was solubilized by addition of 10 mM Tris (pH 10), and the absorbance was determined in a Titertek Multiscan plate reader at 490 nm. The data calculations were carried out as described (the values for mean±SD of data from replicate wells are calculated): data are expressed in terms of % T/C [(OD of treated cells/OD of control cells)×100], as a measure of cell viability and survival in the presence of test materials. Calculations are also made for the concentration of test agents giving a T/C value of 50%, or 50% growth inhibition (IC50). With the SRB assay, a measure is made of the cell population density at time 0 (the time at which drugs are added) from two extra reference plates of inoculated cells fixed with TCA just prior to drug addition to the test plates. Thus, we have three measurements: control optical density (C), test optical density (T), and optical density at time zero (T0). The calculation is 100×[(T−T0)/(C−T0)]. If T is less than T0, cell killing has occurred and can be calculated from 100×[(T−T0)/T0]. Thus, for each drug-cell line combination, a dose-response curve is generated and three levels of effect are calculated.

[1] = tested on: eIF2•GTP•Met-tRNAi ternary complex; test: Ternary complex assay (ATF-4 assay), dual luciferase firefly/renilla ratio; format: cell-based, mouse; settings: for maximal fold induction at 40 µM: read-out: ATF-4 Xmax @ 40 μM
Source text: For assay development, a bi-directional plasmid was designed in which a common promoter/enhancer complex drives the transcription of firefly luciferase (F-luc) ORF fused to the 5′ untranslated region (UTR) of ATF-4, and of the renilla luciferase (R-luc) ORF fused to a 90-nucleotide 5′ UTR derived from the plasmid (FIG. 6A). Because the tetracycline-regulated transactivator ((tTA), required for driving transcription from this vector) is not normally expressed in the mammalian cells, stable KLN cancer cells were constructed that expressed tTA (KLN-tTA).
The KLN-tTA colonies that drove expression of reporter genes from pBISA-DL plasmid were selected by transient transfection and dual luciferase assay. One of these KLN-tTA cell lines was transfected with the pBISA-DL^(ATF-4) expression vector, stable colonies were selected by dual luciferase assay and expanded.
Plasmids and Ternary Complex Assay
(ATF-4 Assay). Briefly, bi-directional mammalian expression vector pBI (Clontech, CA) was modified to expand the multiple cloning sites (MCSs) and designated thereafter as pBISA. This vector contains seven copies of the tetracycline-regulated transactivator response element (TRE), which together act as core promoter/enhancer. The TRE is flanked on both sides by minimal human cytomegalovirus (CMV) minimal promoters allowing bi-directional transcription and two MCSs. Firefly and renilla luciferases were subcloned into MCS-I and MCS-II, respectively. This plasmid, designated pBISA-DL, transcribes two mRNAs that contain the 90 nucleotide plasmid derived 5′UTR (same sequence in both mRNAs), and the ORF encoding either firefly or renilla luciferase followed by a polyadenylation sequence as described in Ziegeler, G.; Ming, J.; Koseki, J. C.; Sevinc, S.; Chen, T.; Ergun, S.; Qin, X.; Aktas, B. H. J. Biol. Chem. 2010, 285, 15408 hereby incorporated by reference. This plasmid was further modified by inserting the 5′UTR of ATF-4 into MCS-I in front of the firefly luciferase mRNA. Transcription from this direction generates an mRNA that contains the firefly luciferase ORF preceded by a 5′UTR composed of 90 nucleotides derived from the plasmid and 267 nucleotides derived from the 5′UTR of ATF-4 mRNA. Transcription from the other direction generates an mRNA that contains the renilla luciferase ORF proceeded only by the 90-nucleotide plasmid-derived sequence in the 5′UTR. This expression plasmid is called pBISA-DL(ATF-4). In the dual luciferase assay, cells expressing firefly and renilla luciferases were lysed and the extracts assayed with a Dual-Glo Luciferase assay kit, per manufacturer's instruction (Promega Inc., Madison, Wis.). The data calculations were carried out as the ratio of firefly to renilla luciferase signal as described in Chen, T.; Ozel, D.; Qiao, Y.; Harbinski, F.; Chen, L.; Denoyelle, S.; He, X.; Zvereva, N.; Supko, J. G.; Chorev, M.; Halperin, J. A.; Aktas, B. H. Nat. Chem. Biol. 2011, 7, 610 hereby incorporated by reference.

CRL-2351 = test: Cell growth assay (sulforhodamine B), CRL-2351 cells; format: cell-based, human; settings: 5 days, SRB
Experimental: (§1) Adherent mouse (KLN) and human solid tumor cells (CRL-2351, and CRL-2813) were plated in 96-well plates and maintained for 5 days in the presence of 0.54 to 6 μM of individual compound, and cell proliferation was measured by the sulforhodamine B (SRB) assay as described in ref. 11: briefly, cells were fixed in 10% cold trichloroacetic acid at 4° C. for 1 h, extensively washed with double-distilled H2O and air-dried. Plates were then incubated with 0.4% SRB in 1% acetic acid for 1 h, washed with 1% acetic acid to remove the unbound dye, and air-dried. The bound dye was solubilized by addition of 10 mM Tris (pH 10), and the absorbance was determined in a Titertek Multiscan plate reader at 490 nm. The data calculations were carried out as described (the values for mean±SD of data from replicate wells are calculated): data are expressed in terms of % T/C [(OD of treated cells/OD of control cells)×100], as a measure of cell viability and survival in the presence of test materials. Calculations are also made for the concentration of test agents giving a T/C value of 50%, or 50% growth inhibition (IC50). With the SRB assay, a measure is made of the cell population density at time 0 (the time at which drugs are added) from two extra reference plates of inoculated cells fixed with TCA just prior to drug addition to the test plates. Thus, we have three measurements: control optical density (C), test optical density (T), and optical density at time zero (T0). The calculation is 100×[(T−T0)/(C−T0)]. If T is less than T0, cell killing has occurred and can be calculated from 100×[(T−T0)/T0]. Thus, for each drug-cell line combination, a dose-response curve is generated and three levels of effect are calculated.

CRL-2813 = test: Cell growth assay (sulforhodamine B), CRL-2813 cells; format: cell-based, human; settings: 5 days, SRB
Experimental: as §1

[2] = Mus musculus, read-out: ATF-4 Xmax
[3] = Mus musculus, 80 uM, read-out: ATF-4 Xmax

SMILES | IC50 (KLN; Mus musculus, 120 h) | IC50 (CRL-2351; Homo sapiens, 120 h) | IC50 (CRL-2813; Homo sapiens, CRL2813, 120 h) | maximal fold induction at 40 µM ([1]; Mus musculus) | further results
CN(C)CCOc1ccc(C(C)(C)C)cc1C1(c2cc(C(C)(C)C)ccc2O)C(=O)Nc2ccccc21 (stereo not shown) [HY077] | 1.7 ± 0.9 µM | 1.9 ± 1 µM | 1.2 ± 0.4 µM |  | maximal fold induction at 20 µM [1, 2]: 4.65 ± 0.88
CC(C)(C)c1ccc(O)c(C2(c3ccc(CN4CCOCC4)cc3)C(=O)Nc3ccccc32)c1 (stereo not shown) [HY016, 3-(5-tert-butyl-2-hydroxyphenyl)-3-(4-(Morpholinomethyl)phenyl)Indolin-2-One] | 17.3 ± 2.4 µM | 7.3 ± 3.6 µM | 7.8 ± 0.66 µM |  | maximal fold induction at 80 µM [1, 3]: 8.5 ± 5.3
CC(C)c1ccc(O)c(C2(c3cc(C(C)C)ccc3O)C(=O)Nc3ccccc32)c1 [HY050, 3,3-Bis(2-Hydroxy-5-Isopropylphenyl)Indolin-2-One] | 15.2 ± 2 µM | 2.6 ± 0.5 µM | 2.9 ± 0.3 µM |  | maximal fold induction at 20 µM [1, 2]: 3.34 ± 0.07
CC(C)(C)c1ccc(OCCN2CCOCC2)c(C2(c3ccccc3)C(=O)Nc3ccccc32)c1 (stereo not shown) [Sd029, 3-(5-tert-Butyl-2-(2-morpholinoethoxy)phenyl)-3-phenylindolin-2-one] | 6.8 ± 3.7 µM | 3.35 ± 0.3 µM | 2.4 ± 0.3 µM | 4 ± 0.1 | 
Cc1cc(C2(c3cc(C(C)(C)C)ccc3O)C(=O)Nc3ccccc32)ccc1Cl (stereo not shown) [HY017, 3-(5-tert-Butyl-2-Hydroxyphenyl)-3-(4-Chloro-3-Methylphenyl)Indolin-2-One] | 4.3 ± 1 µM | 2.9 ± 0.1 µM | 2.9 ± 0.1 µM | 0.65 ± 0.7 | 
CC(C)Oc1ccc(O)c(C2(c3cc(OC(C)C)ccc3O)C(=O)Nc3ccccc32)c1 [HY037, 3,3-Bis(2-Hydroxy-5-Isopropoxyphenyl)Indolin-2-One] | > 20 µM | 3.6 ± 0.6 µM | 5.6 ± 0.8 µM |  | maximal fold induction at 80 µM [1, 3]: 2.79 ± 0.9
CN(C)CCOc1ccc(C(C)(C)C)cc1C1(c2cc(C(C)(C)C)ccc2OCCN(C)C)C(=O)Nc2ccccc21 [HY177] | > 20 µM | 11.5 ± 1.5 µM | 12.5 ± 1 µM | 1.34 ± 0.38 | 
O=C1Nc2ccccc2C1(c1ccccc1)c1cc(C2CCCC2)ccc1O (stereo not shown) [Compound 1289, reference compound] | 16 ± 2.2 µM | 3.2 ± 1 µM | 2.5 ± 0.3 µM | 2.87 ± 2.19 | 
CC(C)(C)c1ccc(O)c(C2(c3ccc(O)cc3)C(=O)Nc3ccccc32)c1 (stereo not shown) [Sd096] | 17.3 ± 1.8 µM | 2 µM | 4 ± 0.28 µM | 1.69 ± 0.6 | 
COC(=O)c1cccc2c1NC(=O)C2(c1ccc(OC)cc1)c1cc(C(C)(C)C)ccc1O (stereo not shown) [Sd202] | > 20 µM | 3.4 ± 0.6 µM | 12.2 ± 0.5 µM | 4.12 ± 0.42 | 
CC(C)Oc1ccc(O)c(C2(c3ccccc3)C(=O)Nc3ccccc32)c1 (stereo not shown) [HY032, 3-(2-Hydroxy-5-Isopropoxyphenyl)-3-Phenylindolin-2-One] | 16.1 ± 2.2 µM | 4.8 ± 1.6 µM | 10.5 ± 1.9 µM | 4.65 ± 0.58 | 
CC(C)(C)c1ccc(OCCN2CCNCC2)c(C2(c3cc(C(C)(C)C)ccc3OCCN3CCNCC3)C(=O)Nc3ccccc32)c1 [HY401] | 10.6 ± 0.9 µM | 0.8 ± 0.1 µM | 1.5 ± 0.9 µM | 11.4 ± 0.65 | 
CC(C)(C)c1ccc(O)c(C2(c3cc(C(C)(C)C)ccc3OCCN3CCOCC3)C(=O)Nc3ccccc32)c1 (stereo not shown) [HY063] | 7.4 ± 2.5 µM | 1.6 ± 0.2 µM | 3.2 ± 0.2 µM | 4.4 ± 1.5 | 
COc1ccc(C2(c3cc(C(C)(C)C)ccc3OCCN3CCOCC3)C(=O)Nc3ccccc32)cc1 (stereo not shown) [Sd139, 3-{5-tert-butyl-2-[2-(morpholin-4-yl)ethoxy]phenyl}-3-(4-methoxyphenyl)-indol-2-one] | 4.3 ± 1 µM | 2.65 ± 1.5 µM | 2.4 ± 0.9 µM | 6.3 ± 0.3 | 
CCOC(=O)COc1ccccc1C1(c2cc(C(C)(C)C)ccc2OCC(=O)OCC)C(=O)Nc2ccccc21 (stereo not shown) [HY067] |  |  |  |  | IC50 (KLN): 19.8 ± 1.3 µM; ATF-4 Xmax ([1]; 80 uM): 1.19 ± 0.19/80 uM; IC50 (CRL-2351): 2.1 ± 1.1 µM; IC50 (CRL-2813): 0.24 µM
CC(C)(C)c1ccc(O)c(C2(c3cc(C(C)(C)C)ccc3O)C(=O)Nc3ccccc32)c1 [HY021, 3,3-Bis(5-tert-Butyl-2-Hydroxyphenyl)Indolin-2-One] | 12 ± 0.7 µM | 2.8 ± 0.4 µM | 10.2 ± 1.2 µM | 4.4 | maximal fold induction at 10 µM ([1]; Mus musculus, 10 uM, read-out: ATF-4 Xmax): 5.2 ± 2.2; maximal fold induction at 20 µM [1, 2]: 10.6
CN1CCN(CCOc2ccc(C(C)(C)C)cc2C2(c3cc(C(C)(C)C)ccc3O)C(=O)Nc3ccccc32)CC1 (stereo not shown) [HY080] | 2.9 ± 0.8 µM | 0.75 ± 0.1 µM | 1.4 ± 0.5 µM |  | maximal fold induction at 20 µM [1, 2]: 24.6 ± 3.37
CC(C)(C)c1ccc(OCCN2CCCC2)c(C2(c3cc(C(C)(C)C)ccc3OCCN3CCCC3)C(=O)N(CCN3CCCC3)c3ccccc32)c1 [HY193] | 2.11 ± 1.1 µM | 0.55 ± 0.17 µM | 1.47 ± 1 µM | 9.09 | maximal fold induction at 2.5 µM ([1]; Mus musculus, 2.5 uM, read-out: ATF-4 Xmax): 12.1 ± 1.8
COc1ccc(C2(c3cc(C(C)(C)C)ccc3O)C(=O)Nc3c2ccc(F)c3F)cc1 (stereo not shown) [Sd140] | 12.3 ± 2 µM | 0.95 ± 0.08 µM | 3 µM | 1.2 ± 0.46 | 
CC(C)(C)c1ccc(OCCN2CCOCC2)c(C2(c3cc(C(C)(C)C)ccc3OCCN3CCOCC3)C(=O)Nc3ccccc32)c1 [SD167] | > 20 µM | 1.68 ± 1.26 µM | 2.4 ± 0.1 µM |  | 
CCCCc1ccc(O)c(C2(c3ccccc3)C(=O)Nc3ccccc32)c1 (stereo not shown) [Compound 1287, reference compound] | > 20 µM | 3.5 ± 0.1 µM | 2.8 ± 0.3 µM |  | 
CC(C)(C)c1ccc(OCCOC2OC(CO)C(O)C(O)C2O)c(C2(c3cc(C(C)(C)C)ccc3OCCOC3OC(CO)C(O)C(O)C3O)C(=O)Nc3ccccc32)c1 (stereo not shown) [HY190] | > 20 µM | > 20 µM | > 20 µM |  | 
